Consider four compounds from patent US20240052109A1, “POLYSILOXANE VINYLIC MONOMERS AND USES THEREOF” (Alcon Inc., priority 2022, published 2024).

The data set in a line: Solubility of PDMS vinylic monomer in 1-PrOH:Water mixtures. Format: physicochemical. As to conditions: 50-60 mg sample, stirred at room temperature. Here is the method:
The solubility of quaternium ammonium containing PDMS vinylic monomer prepared in Example 2 is evaluated in 1-PrOH:Water mixtures. Typically, 50-60 mg of the sample is combined with a selected solvent system and it is stirred/agitated at room temperature. After few minutes compatibility is evaluated. For comparison, the solubilities of three reference materials are also evaluated. The three reference material are: methacryloxypropyl- and n-butyl-terminated polydimiethylsiloxane (D6, Mn=700-800 g/mol) (Ref. 1); methacryloxypropyl- and n-butyl-terminated polydimiethylsiloxane (D9, Mn=900-1,000 g/mol) (Ref. 2); and methyl- and 2-[4-(chloromethyl)phenyl]ethyl-terminated polydimethylsiloxane (Ref. 3).

Consider `C=CC(=O)NCCC[N+](C)(C)Cc1ccc(CC[Si](C)(C)O[Si](C)(C)O[Si](C)(C)O[Si](C)(C)O[Si](C)(C)C)cc1` [Example 2], for which the “Solubility (compatibility) in 1-PrOH:Water” value (“Solubility (compatibility)” for short) is reported as “Hazy” (1-PrOH:Water 0:100); “Hazy” (1-PrOH:Water 20:80); “Clear” (1-PrOH:Water 40:60); “Clear” (1-PrOH:Water 60:40); “Clear” (1-PrOH:Water 80:20); “Clear” (1-PrOH:Water 100:0).

On to “methacryloxypropyl- and n-butyl-terminated polydimiethylsiloxane [Ref. 1]”, for which the “Solubility (compatibility)” value is, setting by setting: (1-PrOH:Water 0:100) “Hazy”; (1-PrOH:Water 20:80) “Hazy”; (1-PrOH:Water 40:60) “Hazy”; (1-PrOH:Water 60:40) “Hazy”; (1-PrOH:Water 80:20) “Clear”; (1-PrOH:Water 100:0) “Clear”.

As for “methacryloxypropyl- and n-butyl-terminated polydimiethylsiloxane [Ref. 2]”, the “Solubility (compatibility)” value is “Hazy” (1-PrOH:Water 0:100); “Hazy” (1-PrOH:Water 20:80); “Hazy” (1-PrOH:Water 40:60); “Hazy” (1-PrOH:Water 60:40); “Hazy” (1-PrOH:Water 80:20); “Clear” (1-PrOH:Water 100:0).

On to “methyl- and 2-[4-(chloromethyl)phenyl]ethyl-terminated polydimethylsiloxane [Ref. 3]”, for which the “Solubility (compatibility)” value is “Hazy” (1-PrOH:Water 0:100); “Hazy” (1-PrOH:Water 20:80); “Hazy” (1-PrOH:Water 40:60); “Hazy” (1-PrOH:Water 60:40); “Clear” (1-PrOH:Water 80:20); “Clear” (1-PrOH:Water 100:0).
